From patent US20260216103A1, “USE OF LONG-ACTING ß2AR AGONIST IN PREPARATION OF DRUGS FOR TREATING CANCERS” (HONG KONG SXMETEROL PHARMACEUTICAL CO., LIMITED, priority 2023, published 2026)
Structures can show the parent of a compound that is named as a salt.

Tests used:
[1] = tested on: MDA-MB-231, SW620, CT-26, H460, H446, B16F10, A375, CAL-27, RT4, SU-DHL-8, PC-3, Hep G2, 786-O, SNU-1, CFPAC-1, PANC-1, SF126, Hela; details: 1 μM, 3 μM, or 10 μM, 7 d; FIG. 28
Method: After 7 d, tumor spheres in the control group and the AT treated group were counted and photographed, respectively.
Using a One-way ANOVA analysis method and Fisher's LSD test as a post test, statistical differences in the number of tumor spheres in all the groups were analyzed (*, P<0.05; **, P<0.01; ***, P<0.001; ****, P<0.0001; n.s., no significant difference).

[2] = tested on: MDA-MB-231, SW620, CT-26, H460, H446, B16F10, A375, CAL-27, KYSE-150, RT4, SU-DHL-8, PC-3, Hep G2, SKOV3, 786-O, CFPAC-1, PANC-1, SF126, U2OS, Hela; test: tumor sphere formation assays of a variety of cancer cells (Example 3, BH); assay type: cell-based; details: 1 μM, 3 μM, or 10 μM, 7 d; FIG. 29
Method: After 7 d, tumor spheres in the control group and the BH treated group were counted and photographed, respectively.
(§1) Using a One-way ANOVA analysis method and Fisher's LSD test as a post test, statistical differences in the number of tumor spheres in all the groups were analyzed (*, P<0.05; **, P<0.01; ***, P<0.001; ****, P<0.0001).

[3] = tested on: cancer stem cells of 17 cancers; test: tumor sphere formation assays of cancer cells, summary over 17 cancers; assay type: cell-based; details: summary of Examples 1-9; agonist used alone
Source text: As a gold standard for detecting the self-renewal capability of cancer stem cells in vitro, a tumor sphere formation assay may detect individual cancer stem cell that continuously self-renew in a conditioned medium and form tumor spheres consisting of multiple cells. This in vitro experiment is often used to test the responsiveness of clinical patients to anticancer drugs, and guide in vivo medication of the clinical patients.
Cancer stem cells have self-renewal capability, which determines the initiation and progression of cancers. As a gold standard for detecting the self-renewal capability of cancer stem cells in vitro, a tumor sphere formation assay may detect individual cancer stem cells that continuously self-renew in a conditioned medium and form tumor spheres consisting of multiple cells.

[4] = tested on: MDA-MB-231, SW620, CT-26, H460, H446, B16F10, A375, CAL-27, KYSE-150, RT4, SU-DHL-8, PC-3, Hep G2, 786-O, CFPAC-1, PANC-1, Hela; test: tumor sphere formation assays of a variety of cancer cells (Example 4, CH); assay type: cell-based; details: 1 μM, 3 μM, or 10 μM, 7 d; FIG. 30
Method: After 7 d, tumor spheres in the control group and the CH treated group were counted and photographed, respectively.
as §1

[5] = tested on: MDA-MB-231, SW620, CT-26, H460, H446, B16F10, A375, CAL-27, KYSE-150, RT4, SU-DHL-8, PC-3, Hep G2, 786-O, CFPAC-1, PANC-1, Hela; test: tumor sphere formation assays of a variety of cancer cells (Example 5, FH); assay type: cell-based; details: 1 μM, 3 μM, or 10 μM, 7 d; FIG. 31
Method: After 7 d, tumor spheres in the control group and the FH treated group were counted and photographed, respectively.
as §1

chronic myeloid leukemia = details: patients, first-line treatment for chronic myeloid leukemia; cited from earlier work
[6] = tested on: MDA-MB-231, SW620, CT-26, H460, H1299, LLC, H446, B16F10, A375, CAL-27, KYSE-150, RT4, SU-DHL-8, PC-3, Hep G2, G-401, SNU-1, CFPAC-1, PANC-1, SF126, U2OS, Hela; test: tumor sphere formation assays of a variety of cancer cells (Example 6, IM); assay type: cell-based; details: 1 μM, 3 μM, or 10 μM, 7 d; FIG. 32
Source text: After 7 d, tumor spheres in the control group and the IM treated group were counted and photographed, respectively.

[7] = tested on: MDA-MB-231, SW620, CT-26, H460, H446, B16F10, A375, CAL-27, KYSE-150, RT4, SU-DHL-8, PC-3, Hep G2, SKOV3, G-401, CFPAC-1, PANC-1, SF126, U2OS, Hela; test: tumor sphere formation assays of a variety of cancer cells (Example 7, OH); assay type: cell-based; details: 1 μM, 3 μM, or 10 μM, 7 d; FIG. 33
Source text: According to culture conditions in Table 1-Table 17 of Example 1, breast cancer cells MDA-MB-231 (A), colorectal cancer cells SW620 (B), colorectal cancer cells CT-26 (C), lung cancer cells H460 (D), lung cancer cells H446 (E), melanoma cells B16F10 (F), melanoma cells A375 (G), head and neck cancer cells CAL-27 (H), esophageal cancer cells KYSE-150 (I), bladder cancer cells RT4 (J), hematoma cells SU-DHL-8 (K), prostate cancer cells PC-3 (L), liver cancer cells Hep G2 (M), ovarian cancer cells SKOV3 (N), kidney cancer cells G-401 (O), pancreatic cancer cells CFPAC-1 (P), pancreatic cancer cells PANC-1 (Q), brain cancer cells SF126 (R), osteosarcoma cells U2OS(S), and cervical cancer cells Hela (T) were subjected to tumor sphere formation assays, and treated with olodaterol hydrochloride (OH) at concentrations of 1 μM, 3 μM, or 10 μM, respectively. After 7 d, tumor spheres in the control group and the OH treated group were counted and photographed, respectively.
as §1

[8] = tested on: MDA-MB-231, SW620, CT-26, H460, H1299, LLC, H446, B16F10, A375, CAL-27, KYSE-150, RT4, SU-DHL-8, PC-3, Hep G2, G-401, 786-O, SNU-1, CFPAC-1, SF126, Hela; test: tumor sphere formation assays of a variety of cancer cells (Example 8, TH); assay type: cell-based; details: 1 μM, 3 μM, or 10 μM, 7 d; FIG. 34
Source text: After 7 d, tumor spheres in the control group and the TH treated group were counted and photographed, respectively.

[9] = tested on: MDA-MB-231, SW620, CT-26, H460, H1299, LLC, H446, B16F10, A375, CAL-27, KYSE-150, RT4, SU-DHL-8, PC-3, Hep G2, G-401, 786-O, SNU-1, CFPAC-1, PANC-1, SF126 …; test: tumor sphere formation assays of a variety of cancer cells (Example 9, VT); assay type: cell-based; details: 1 μM, 3 μM, or 10 μM, 7 d; FIG. 35
Source text: After 7 d, tumor spheres in the control group and the VT treated group were counted and photographed, respectively.

For COc1ccc(C[C@@H](C)NC[C@H](O)c2ccc(O)c(NC=O)c2)cc1 [arformoterol tartrate], the “number of tumor spheres (inhibition of tumor sphere formation)” value [1] was “has therapeutic effects on a variety of types of cancer in a concentration dependent manner”.
For CN(C)C(=O)Oc1cc(OC(=O)N(C)C)cc(C(O)CNC(C)(C)C)c1 (stereo not shown) [bambuterol hydrochloride], the “number of tumor spheres (inhibition of tumor sphere formation)” value [2] was “has therapeutic effects on a variety of types of cancer in a concentration dependent manner” and the “self-renewal capability of cancer stem cells” value (shortened to “self-renewal capability”) [3] was “can significantly inhibit the self-renewal capability of cancer stem cells of 17 cancers”.
With CC(C)(C)NCC(O)c1cc(Cl)c(N)c(Cl)c1 (stereo not shown) [clenbuterol hydrochloride] the “number of tumor spheres (inhibition of tumor sphere formation)” value [4] was “has therapeutic effects on a variety of types of cancer in a concentration dependent manner” and the “self-renewal capability” value [3] was “can significantly inhibit the self-renewal capability of cancer stem cells of 17 cancers”.
With COc1ccc(C[C@@H](C)NC[C@H](O)c2ccc(O)c(NC=O)c2)cc1.COc1ccc(C[C@@H](C)NC[C@H](O)c2ccc(O)c(NC=O)c2)cc1.O=C(O)/C=C/C(=O)O [formoterol hemifumarate] the “number of tumor spheres (inhibition of tumor sphere formation)” value [5] was “has therapeutic effects on a variety of types of cancer in a concentration dependent manner” and the “self-renewal capability” value [3] was “can significantly inhibit the self-renewal capability of cancer stem cells of 17 cancers”.
In the case of Cc1ccc(NC(=O)c2ccc(CN3CCN(C)CC3)cc2)cc1Nc1nccc(-c2cccnc2)n1 [imatinib, Imatinib], the “overall 10-year survival rate” value (chronic myeloid leukemia) is listed as 83.3%.
With CCc1cc2c(cc1CC)CC(NC[C@H](O)c1ccc(O)c3[nH]c(=O)ccc13)C2 [indacaterol maleate] the “number of tumor spheres (inhibition of tumor sphere formation)” value [6] was “has therapeutic effects on a variety of types of cancer in a concentration dependent manner” and the “self-renewal capability” value [3] was “can significantly inhibit the self-renewal capability of cancer stem cells of 17 cancers”.
For COc1ccc(CC(C)(C)NC[C@H](O)c2cc(O)cc3c2OCC(=O)N3)cc1 [olodaterol hydrochloride], the “number of tumor spheres (inhibition of tumor sphere formation)” value [7] was “has therapeutic effects on a variety of types of cancer in a concentration dependent manner” and the “self-renewal capability” value [3] was “can significantly inhibit the self-renewal capability of cancer stem cells of 17 cancers”.
In the case of CC(C)(C)NCC(O)c1ccccc1Cl (stereo not shown) [tulobuterol hydrochloride], the “number of tumor spheres (inhibition of tumor sphere formation)” value [8] is reported as “has therapeutic effects on a variety of types of cancer in a concentration dependent manner” and the “self-renewal capability” value [3] is reported as “can significantly inhibit the self-renewal capability of cancer stem cells of 17 cancers”.
With O=C(O)C(c1ccccc1)(c1ccccc1)c1ccccc1.OCc1cc([C@@H](O)CNCCCCCCOCCOCc2c(Cl)cccc2Cl)ccc1O [vilanterol trifenate] the “number of tumor spheres (inhibition of tumor sphere formation)” value [9] was “has therapeutic effects on a variety of types of cancer in a concentration dependent manner” and the “self-renewal capability” value [3] was “can significantly inhibit the self-renewal capability of cancer stem cells of 17 cancers”.
